Source: patent publication US20210029991A1, “TRISILOXANE ALKOXYLATE COMPOSITIONS” (Momentive Performance Materials Inc., priority 2018, published 2021)
Several values for one entry are separate records, joined by “and”; a condition that tells them apart may be missing. Equal entries are not always repeated.

Legend:
[1] = Dynamic surface tension (Kruss Maximum Bubble Pressure tensiometer); assay type: physicochemical; settings: 0.4 wt % in deionized water
Protocol: Dynamic surface tension (DST) was measured using a Kruss Maximum Bubble Pressure tensiometer. TSA solutions were prepared at 0.4 wt % in deionized water, further purified with a Milli-Q ultrapure filtration system (Millipore Corp.). The data for surface tension vs time (milliseconds) was plotted and then the surface tension was calculated from a trend line to generate surface tension data at 75, 100, 150 and 200 milliseconds (mSec).

[2] = tested on: bean leaf (Vicia faba); experiment: Uptake (stomatal infiltration) of ^14C-glyphosate isopropylamine salt into bean leaf; assay type: in vivo
Protocol: The impact of the TSA-1/TSA-2 blends on the uptake of ^14C-glyphosate (herbicide) solutions into bean leaf (Vicia fava) was determined at 10 minutes after application, according to the method described by Stevens et al., Contributions of stomatal infiltration and cuticular penetration to enhancements of foliar uptake by surfactants. […]. Sci., 33, 371-382, to establish the contribution of trisiloxane alkoxylate (TSA) surfactants on the speed of uptake, via stomatal infiltration). Here glyphosate solutions containing 0.4% TSA surfactant was applied to bean leaf using a micro-syringe. At 10 minutes after application, the leaf was washed with aqueous ethanol and uptake was determined by subtraction, using a scintillation counter to measure residual ^14C-glyphosate-IPA salt (Stevens et al. […]. Sci., 33, 371-382). The uptake by stomatal infiltration of ^14C-glyphosate-isopropyl amine salt into bean-leaf (Vicia faba) at 10 minutes after application was determined as outlined in Example 4.

## C[Si](C)(C)O[Si](C)(CCCOCCOCCOCCOCCOCCOCCOCCOCCO)O[Si](C)(C)C [TSA-1-B]
[1]; calculated from trend line at 75 mSec
  Dynamic Surface Tension, IFDT 75 mSec: 49.5 mN/m
[1]; calculated from trend line at 100 mSec
  Dynamic Surface Tension, IFDT 100 mSec: 47.6 mN/m
[1]; calculated from trend line at 150 mSec
  Dynamic Surface Tension, IFDT 150 mSec: 43.9 mN/m
[1]; calculated from trend line at 200 mSec
  Dynamic Surface Tension, IFDT 200 mSec: 40.1 mN/m
[2]; ^14C-glyphosate into bean, 0.4% TSA adjuvant, 10 minutes after application
  Uptake (%) Observed: 79.3 ab % and 90.2 a % and 88.0 ab % and 85.9 a %
[2]; weighted average of the components, 0.4% adjuvant, 10 minutes
  Uptake (%) Predicted: 79.3% and 90.2% and 88.0% and 85.9%
